Measured values: US8507724B2 (priority 2008, dated 2013)
Several values for one entry are separate records, joined by “and”; a condition that tells them apart may be missing. Identical values can stand only once. Like-named read-outs stand apart in the source and are kept apart here.

Assays:
[1] = target: T1, α1 homomeric glycine receptors (Rattus norvegicus, UniProt P07727); assay: Whole-cell patch-clamp, Cl- current activated via α1 homomeric glycine receptors in transfected HEK 293 cells; format: cell-based
T1 construct: expressed in transfected cells; host or cells: HEK 293 (transient transfection by electroporation, cDNA in pCIS2 vector)
T1 sequence (P07727 29-457): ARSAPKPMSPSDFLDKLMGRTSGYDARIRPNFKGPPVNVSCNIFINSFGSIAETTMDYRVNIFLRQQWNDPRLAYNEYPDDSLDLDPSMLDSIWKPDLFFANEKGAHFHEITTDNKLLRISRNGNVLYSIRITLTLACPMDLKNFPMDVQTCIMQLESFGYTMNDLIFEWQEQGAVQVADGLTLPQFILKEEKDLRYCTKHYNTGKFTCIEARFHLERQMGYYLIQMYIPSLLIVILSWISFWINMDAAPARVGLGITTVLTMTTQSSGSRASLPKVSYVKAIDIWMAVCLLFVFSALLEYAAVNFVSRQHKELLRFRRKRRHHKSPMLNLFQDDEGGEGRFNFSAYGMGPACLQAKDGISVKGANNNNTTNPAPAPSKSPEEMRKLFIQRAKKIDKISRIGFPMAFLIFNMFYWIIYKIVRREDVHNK
Description: Cells were cultured in Dulbecco's modified Eagle's medium (DMEM, Biochrom, Berlin, Germany), supplemented with 10% fetal calf serum (FCS, Biochrom, Berlin, Germany), 100 U ml^−1 penicillin and 100 μg ml^−1 streptomycin at 37° C. in a 5% CO2/air incubator. […] For co-transfection of rat α1 glycine receptor subunits, the corresponding cDNA, each subcloned in the pCIS2 expression vector (Invitrogen, San Diego, USA), was added to the suspension. To visualize transfected cells, they were co-transfected with cDNA of green fluorescent protein (GFP 10 μg ml^−1). For transfection, we used an electroporation device by EquiBio (Kent, UK).
The compounds according to the present invention under investigation were prepared as 1 M stock solution in ethanol, light-protected and stored in glass vessels at −20° C. Concentrations were calculated from the amount injected into the glass vials. Drug-containing vials were vigorously vortexed for 60 min. Glycine and picrotoxin were dissolved directly in bath solution.
Patch electrodes contained [mM] KCl 140, MgCl2 2, EGTA 11, HEPES 10, glucose 10; the bath solution contained [mM]
A tight electrical seal of several GΩ formed between the cell membrane and a patch-clamp electrode allows inward currents due to agonist-induced channel activation to resolve in the pA range. Electrical resistance of the pipettes was around 5 MΩ, corresponding to a total access resistance in the whole-cell configuration of about 10 MΩ. The compounds according to the present invention under investigation were applied to the cells via a smooth liquid filament achieved with a single outflow (glass tubing 0.15 mm inner diameter) connected to a piezo crystal. The cells were placed at the interface between this filament and the continuously flowing background solution. When a voltage pulse was applied to the piezo, the tube was moved up and down onto or away from the cell under investigation. Correct positioning of the cell in respect to the liquid filament was ensured applying a saturating (1000 μM) glycine pulse before and after each test experiment. Care was taken to ensure that the amplitude and the shape of the glycine-activated current had stabilized before proceeding with the experiment. Test solution and glycine (1000 μM) were applied via the same glass-polytetrafluoroethylen perfusion system, but from separate reservoirs. The contents of these reservoirs were mixed at a junction immediately before entering the superfusion chamber.
The compounds under test were applied alone in order to determine their direct agonistic effects. A new cell was used for each compound and each protocol, at least three different experiments were performed for each setting. The amount of the diluent ethanol corresponding to the highest compound concentration used was 34 000 μM.
For data acquisition and further analysis the inventors used the Axopatch 200B amplifier in combination with pClamp6 software (Axon Instruments, Union City, Calif., USA). Currents were filtered at 2 kHz. Fitting procedures were performed using a non-linear least-squares Marquardt-Levenberg algorithm. Details are provided in the appropriate figure legends or in the results section.
Activated currents were normalized to their own maximum response. The dose-response-curves were fitted according to (Inorm=[1+(EC50/[C])^nH]^−1), where Inorm is the current induced directly by the respective concentration [C] of the compound, normalized to the maximum inward current.

[2] = in vivo; format: in vivo; conditions: rat; for Tmax: read-out: tmax (converted); for half-life: mean n=3, read-out: t1/2
Description: […] Whole blood samples were taken from a lateral tail vein for plasma separation at time points 0 min, 30 min, 1 h, 2 h and 4 h after p.o. dosing; and 0 min, 15 min, 30 min, 1 h, and 2 h after i.v. dosing, while the terminal samples at time point 6 h after dosing (p.o and Lv.) were taken by cardiac puncture. All time points were taken from a single rat, and all experiments were carried out in triplicate.
The samples were thawn at room temperature and prepared by protein precipitation with ratio 1:2 of plasma and acetonitrile and were centrifuged 10 minutes at 16 100×g (Eppendorf 5415D, Eppendorf AG, Hamburg, Germany) before injection to UPLCIMSMS system. The standard samples were prepared similarly, after spiking blank plasma samples to 0.5, 2, 5, 10, 20, 50, 200, 500, 1000 and 2000 ng/ml of the analyte compounds.
The pharmacokinetic parameters for study compounds were calculated by WinNonlin Pro (Pharsight Corp, CA) using standard noncompartmental methods. The volume of distribution (Vd) was based on the terminal phase. The elimination phase half-life (t1/2) was calculated by least-squares regression analysis of the terminal linear part of the log concentration-time curve. The area under the plasma concentration-time curve (AUC) was determined by use of the linear trapezoidal rule up to the last measurable concentration and thereafter by extrapolation of the terminal elimination phase to infinity. The area under the plasma concentration-time curve without terminal extrapolation is reported as AUC 0-6 h. The mean residence time (MRT) representing the average amount of time a compound remains in a compartment or system was calculated extrapolating the drug concentration profile to infinity. The maximum plasma concentration (cmax) and the time to cmax (tmax) were derived directly from the plasma concentration data. The tentative oral bioavailability (F) was calculated by dividing the AUC after p.o. administration by the AUC after i.v. administration taking into account the differences in dose, i.e. F=AUC(p.o.)/Dose(p.o.)/AUC(i.v)/[…], and reported as percentages (%).
A Waters Acquity chromatographic system (Waters Corp., Milford, Mass., USA) with autosampler, vacuum degasser and column oven was used. The analytical column used for all compounds was a Waters BEH ShieldRP18, (2.1×50 mm, 1.7 μm, Waters Corp, Milford, Mass., USA) together with an on-line filter. The eluents were 0.1% acetic acid (A, pH 3.2) and acetonitrile (B). A linear gradient elution from 5% B to 35% B in 0-2 minutes, from 35% B to 85% B in 2.0-3.0 min was employed, followed by 1 min isocratic elution with […] and column equilibration. The flow rate was 0.5 ml/min and the column oven temperature was 35° C. LC/MS/MS/data was acquired with a Micromass Quattro Premier triple quadrupole mass spectrometer equipped with a LockSpray electrospray ionization source. A negative ion mode ionisation was used. The multiple reaction monitoring (MRM) mode of detection was used. The mass spectrometer and UPLC system were operated under Micromass MassLynx 4.1 software. Complete LC/MS/MS parameters are presented in Appendix I.
Detection/quantitation limits between 2 ng/ml and 10 ng/ml in plasma were obtained for each compound. Calibration curves for quantification were generated by fitting the ratio of the external standard peak areas as a function of the concentration, excluding the point of origin and using 1/x weighting and linear or quadratic fitting. The ranges up to 2000 ng/ml were fitted for calibration curves. […] The overall precisions 12.0-17.0% were calculated from the standard samples (two injection/concentration), using Snedecor equation S=(Σd^2/2n)^0.5, in which S=precision, d is the difference between duplicates expressed as % of the mean value, and N is the number of standard concentration. The concentrations of each study compound in the samples are shown in the Appendices IV-VI.

[3] = EC50 (nM), α1 homomer, initial tests, Hill fit to normalised response, rat α1 receptors in HEK 293
[4] = initial tests, Hill fit to normalised response
[5] = plasma, iv, i.v. 1 mg/kg, mean n=3
[6] = 1 mg/kg i.v., individual animals, 1 mg/kg
[7] = 8 mg/kg p.o., individual animals, 8 mg/kg

CC(C)c1cc(-c2ccc(-c3ccccc3)cc2)cc(C(C)C)c1O [4-(p-biphenyl)-propofol]
EC50 [1, 3]: 0.8 ± 0.2 nM | nH (Hill coefficient), α1 homomer [1, 4]: 2.6 ± 1.2

CC(C)c1cc(-c2ccc(C(C)(C)C)cc2)cc(C(C)C)c1O [4-(p-tert-butylphenyl)-propofol]
EC50 [1, 3]: 0.05 ± 0.03 nM | nH (Hill coefficient), α1 homomer [1, 4]: 2.0 ± 0.4

CC(C)c1cc(Cl)cc(C(C)C)c1O [4-Cl-propofol, 4-Chloropropofol]
clearance [2, 5]: 148 mL/min/kg | Tmax [2, 5]: 15 min | bioavailability ([2]; plasma, oral, 8 mg/kg p.o. vs 1 mg/kg i.v., read-out: F (%) tentative oral bioavailability): 72.4% | Tmax ([2]; plasma, po, p.o. 8 mg/kg, mean n=3): 30 min | tmax ([2]; 1 mg/kg i.v., individual animals): 15 min | AUC [2, 6]: 10.7 µg·min/mL and 5.43 µg·min/mL and 6.01 µg·min/mL | CL/F [2, 6]: 93.2 mL/min/kg and 184 mL/min/kg and 166 mL/min/kg | MRT [2, 6]: 31.8 min and 80.8 min and 33.6 min | cmax [2, 6]: 170 ng/mL and 70 ng/mL and 90 ng/mL | t1/2 [2, 6]: 16.3 min and 81.8 min and 48.2 min | tmax ([2]; 8 mg/kg p.o., individual animals): 30 min | AUC [2, 7]: 33.2 µg·min/mL and 34.9 µg·min/mL and 60.4 µg·min/mL | CL/F [2, 7]: 229 mL/min/kg and 133 mL/min/kg | MRT [2, 7]: 305 min and 760 min and 764 min | cmax [2, 7]: 0.12 μg/mL (2×) and 0.05 μg/mL | t1/2 [2, 7]: 205 min and 493 min and 496 min | ADC 0-6 h ([2]; i.v. 1 mg/kg, mean n=3): 6.29 µg·min/mL | AUC ([2]; i.v. 1 mg/kg, mean n=3): 7.39 µg·min/mL | CL/F ([2]; i.v. 1 mg/kg, mean n=3): 148 mL/min/kg | half life (in words) ([2]; i.v. dosing): intermediate | clearance (in words) ([2]; i.v. dosing, compared to rat liver blood flow): very high | concentration in plasma ([2]; iv (1 mg/kg), 15 min, individual animals, listed as CK1-1, 1 mg/kg): 172 ng/mL and 70.0 ng/mL and 94.3 ng/mL | concentration in plasma ([2]; iv (1 mg/kg), 30 min, individual animals, listed as CK1-1, 1 mg/kg): 26.1 ng/mL and 25.4 ng/mL | concentration in plasma ([2]; iv (1 mg/kg), 1 h, individual animals, listed as CK1-1, 1 mg/kg): 15.2 ng/mL and 16.5 ng/mL | concentration in plasma ([2]; iv (1 mg/kg), 2 h, individual animals, listed as CK1-1, 1 mg/kg): 33.7 ng/mL and 11.5 ng/mL | detection in plasma after oral (p.o.) administration ([2]; p.o.): observed in plasma | ADC 0-6 h ([2]; p.o. 8 mg/kg, mean n=3): 18.7 µg·min/mL | AUC ([2]; p.o. 8 mg/kg, mean n=3): 42.8 µg·min/mL | CL ([2]; p.o. 8 mg/kg, mean n=3): 146 mL/min/kg | Vd ([2]; p.o. 8 mg/kg, mean n=3): 79.6 L/kg | MRT ([2]; plasma, iv, 1 mg/kg, i.v. 1 mg/kg, mean n=3, read-out: MRT (converted)): 48.7 min | Vd ([2]; plasma, iv, 1 mg/kg, i.v. 1 mg/kg, mean n=3, read-out: Vd): 11.8 L/kg | cmax ([2]; plasma, iv, 1 mg/kg, i.v. 1 mg/kg, mean n=3, read-out: cmax): 110 ng/mL | half-life ([2]; plasma, iv, 1 mg/kg, i.v. 1 mg/kg): 48.8 min | concentration at 30 min ([2]; plasma, iv, 1 mg/kg, iv (1 mg/kg), 30 min, individual animals): 47.3 ng/mL | concentration at 1 h ([2]; plasma, iv, 1 mg/kg, iv (1 mg/kg), 1 h, individual animals): 13.2 ng/mL | CL/F ([2]; plasma, po, 8 mg/kg, 8 mg/kg p.o., individual animals, read-out: CL/F): 241 mL/min/kg | Vd/F ([2]; plasma, po, 8 mg/kg, p.o. 8 mg/kg, mean n=3): 110 L/kg | CL/F ([2]; plasma, po, 8 mg/kg, p.o. 8 mg/kg, mean n=3, read-out: CL/F): 201 mL/min/kg | MRT ([2]; plasma, po, 8 mg/kg, p.o. 8 mg/kg, mean n=3, read-out: MRT (converted)): 609 min | cmax ([2]; plasma, po, 8 mg/kg, p.o. 8 mg/kg, mean n=3, read-out: cmax): 100 ng/mL | half-life ([2]; plasma, po, 8 mg/kg, p.o. 8 mg/kg): 398 min | concentration at 4 h ([2]; plasma, po, 8 mg/kg, po (8 mg/kg), 4 h, individual animals): 61.8 ng/mL | concentration at 6 h ([2]; plasma, po, 8 mg/kg, po (8 mg/kg), 6 h, individual animals): 33.8 ng/mL | concentration in plasma ([2]; po (8 mg/kg), 30 min, individual animals, listed as CK1-1, 8 mg/kg): 121 ng/mL and 116 ng/mL and 51.0 ng/mL | concentration in plasma ([2]; po (8 mg/kg), 1 h, individual animals, listed as CK1-1, 8 mg/kg): 99.8 ng/mL and 47.3 ng/mL and 57.2 ng/mL | concentration in plasma ([2]; po (8 mg/kg), 2 h, individual animals, listed as CK1-1, 8 mg/kg): 64.3 ng/mL and 25.3 ng/mL and 52.3 ng/mL | concentration in plasma ([2]; po (8 mg/kg), 4 h, individual animals, listed as CK1-1, 8 mg/kg): 36.1 ng/mL and 55.1 ng/mL | concentration in plasma ([2]; po (8 mg/kg), 6 h, individual animals, listed as CK1-1, 8 mg/kg): 32.0 ng/mL and 55.3 ng/mL

CC(C)c1cc(NC(=O)C(F)(F)F)cc(C(C)C)c1O [4-trifluoroacetamide-propofol, 4-Trifluoroacetamide-propofol]
EC50 [1, 3]: 0.3 nM | EC50 ([1]; EC50, further series of tests (later tests)): 0.11 nM
